Source: paper PMC11822212, “High-throughput screening identifies Aurora kinase B as a critical therapeutic target for Merkel cell carcinoma” (Nature Communications, 2025)
Structures can show the parent of a compound that is named as a salt.

Columns and labels:
HACAT cells = test: qHTS cell viability (CellTiter-Glo, 72 h; primary screen), control cell line; format: cell-based, human
UISO cells (VN-MCC) = test: qHTS cell viability (CellTiter-Glo, 72 h; primary and follow-up small molecule screen); format: cell-based, human
[1] = system: MCC cell lines (WAGA, MKL-1, MKL-2, MCC13, MCC26, UISO); test: qHTS cell viability, all six MCC cell lines as a group (mean AUC, MCC.avg); format: cell-based, human; conditions: mean AUC of six MCC cell lines
NIH-3T3 cells = test: qHTS cell viability (CellTiter-Glo, 72 h; primary screen), control cell line; format: cell-based, mouse
HEK293T cells = test: as above; format: cell-based, human
CRL-7250 cells = test: as above; format: cell-based
MCC13 cells (VN-MCC) = test: qHTS cell viability (CellTiter-Glo, 72 h; primary and follow-up small molecule screen); format: cell-based, human
[2] = system: six MCC cell lines and four control cell lines; test: qHTS cell viability, all 10 cell lines screened; format: cell-based
MKL-2 cells (VP-MCC) = test: qHTS cell viability (CellTiter-Glo, 72 h; primary and follow-up small molecule screen); format: cell-based, human
MKL-1 cells (VP-MCC) = test: as above; format: cell-based, human
[3] = system: VP-MCC cell lines (WAGA, MKL-1, MKL-2); test: qHTS cell viability, VP-MCC cell lines as a group (mean AUC, VP.MCC.avg); format: cell-based, human; conditions: for VP-MCC_Avg_AUC: mean AUC of VP-MCC cell lines
[4] = system: control cell lines (HACAT, HEK293T, CRL-7250, NIH-3T3); test: qHTS cell viability, control cell lines as a group (mean AUC, Control.avg); format: cell-based; conditions: mean AUC of control cell lines
[5] = system: VN-MCC cell lines (MCC13, MCC26, UISO); test: qHTS cell viability, VN-MCC cell lines as a group (mean AUC, VN.MCC.avg); format: cell-based, human; conditions: for VN-MCC_Avg_AUC: mean AUC of VN-MCC cell lines
WAGA cells (VP-MCC) = test: qHTS cell viability (CellTiter-Glo, 72 h; primary and follow-up small molecule screen); format: cell-based, human
MCC26 cells (VN-MCC) = test: as above; format: cell-based, human
[6] = NPC library, qHTS dose-response AUC, HACAT control
[7] = NPC library, qHTS dose-response AUC, UISO
[8] = NPC library, qHTS dose-response AUC, NIH3T3 control
[9] = NPC library, qHTS dose-response AUC, HEK293T control
[10] = NPC library, qHTS dose-response AUC, CRL7250 control
[11] = NPC library, qHTS dose-response AUC, MCC13
[12] = NPC library, therapeutic window: Control avg AUC minus MCC avg AUC
[13] = NPC library, qHTS dose-response AUC, MKL2
[14] = NPC library, qHTS dose-response AUC, MKL1
[15] = NPC library, therapeutic window: Control avg AUC minus VP-MCC avg AUC
[16] = NPC library, therapeutic window: Control avg AUC minus VN-MCC avg AUC
[17] = NPC library, qHTS dose-response AUC, WAGA
[18] = NPC library, qHTS dose-response AUC, MCC26
[19] = MIPE library, 11-point DRC, control cell line, sheet S2E
[20] = MIPE library, 11-point DRC, sheet S2E

## CCCCOc1ccc(C(=O)CCN2CCCCC2)cc1 [Dyclonine hydrochloride]
HACAT cells; [6]
  HACAT_AUC: 461.491
UISO cells (VN-MCC); [7]
  UISO_AUC: 466.874
[1]; NPC library
  MCC_Avg_AUC: 443.147
NIH-3T3 cells; [8]
  NIH3T3_AUC: 489.536
HEK293T cells; [9]
  HEK293T_AUC: 441.492
CRL-7250 cells; [10]
  CRL7250_AUC: 454.097
MCC13 cells (VN-MCC); [11]
  MCC13_AUC: 493.918
[2]; [12]
  Control-MCC: 18.5075
MKL-2 cells (VP-MCC); [13]
  MKL2_AUC: 401.71
MKL-1 cells (VP-MCC); [14]
  MKL1_AUC: 424.663
[3]; NPC library
  VP-MCC_Avg_AUC: 410.674
[3]; [15]
  Control-VP-MCC: 50.9798
[4]; NPC library
  Control_Avg_AUC: 461.654
[5]; NPC library
  VN-MCC_Avg_AUC: 475.619
[5]; [16]
  Control-VN-MCC: -13.9648
WAGA cells (VP-MCC); [17]
  WAGA_AUC: 405.649
MCC26 cells (VN-MCC); [18]
  MCC26_AUC: 466.065

## O=C(CCCCCCCCC#CI)Oc1ccccc1 [Phenyl 11-iodo-10-undecynoate]
HACAT cells; [6]
  HACAT_AUC: 489.285
UISO cells (VN-MCC); [7]
  UISO_AUC: 437.546
[1]; NPC library
  MCC_Avg_AUC: 428.115
NIH-3T3 cells; [8]
  NIH3T3_AUC: 495.803
HEK293T cells; [9]
  HEK293T_AUC: 475.205
CRL-7250 cells; [10]
  CRL7250_AUC: 487.776
MCC13 cells (VN-MCC); [11]
  MCC13_AUC: 470.776
[2]; [12]
  Control-MCC: 58.9016
MKL-2 cells (VP-MCC); [13]
  MKL2_AUC: 402.29
MKL-1 cells (VP-MCC); [14]
  MKL1_AUC: 407.973
[3]; NPC library
  VP-MCC_Avg_AUC: 405.485
[3]; [15]
  Control-VP-MCC: 81.5325
[4]; NPC library
  Control_Avg_AUC: 487.017
[5]; NPC library
  VN-MCC_Avg_AUC: 450.746
[5]; [16]
  Control-VN-MCC: 36.2708
WAGA cells (VP-MCC); [17]
  WAGA_AUC: 406.191
MCC26 cells (VN-MCC); [18]
  MCC26_AUC: 443.917

## CC#C[C@]1(O)CC[C@H]2[C@@H]3CCC4=CC(=O)CCC4=C3[C@@H](c3ccc(N(C)C)cc3)C[C@@]21C [Mifepristone]
HACAT cells; [19]
  HACAT_AUC: 471.301
UISO cells (VN-MCC); [20]
  UISO_AUC: 367.837
UISO cells (VN-MCC); follow-up screen, UISO, replicate 1
  Area under the dose-response curve (AUC) UISO Replicate 1: 472.5
UISO cells (VN-MCC); follow-up screen, UISO, replicate 2
  Area under the dose-response curve (AUC) UISO Replicate 2: 481.5
UISO cells (VN-MCC); follow-up screen, UISO, replicate 3
  Area under the dose-response curve (AUC) UISO Replicate 3: 472.0
[1]; MIPE library, sheet S2E
  MCC_Avg_AUC: 351.459
NIH-3T3 cells; [19]
  NIH3T3_AUC: 475.344
HEK293T cells; [19]
  HEK293T_AUC: 403.35
CRL-7250 cells; [19]
  CRL7250_AUC: 445.154
MCC13 cells (VN-MCC); [20]
  MCC13_AUC: 450.219
MCC13 cells (VN-MCC); follow-up screen, MCC13, replicate 1
  Area under the dose-response curve (AUC) MCC13 Replicate 1: 516.1
MCC13 cells (VN-MCC); follow-up screen, MCC13, replicate 2
  Area under the dose-response curve (AUC) MCC13 Replicate 2: 505.4
MCC13 cells (VN-MCC); follow-up screen, MCC13, replicate 3
  Area under the dose-response curve (AUC) MCC13 Replicate 3: 486.2
[2]; MIPE library, Control AUC minus MCC AUC (therapeutic window), sheet S2E
  Control-MCC: 97.3285
MKL-2 cells (VP-MCC); [20]
  MKL2_AUC: 266.162
MKL-2 cells (VP-MCC); follow-up screen, MKL-2, replicate 1
  Area under the dose-response curve (AUC) MKL-2 Replicate 1: 494.5
MKL-2 cells (VP-MCC); follow-up screen, MKL-2, replicate 2
  Area under the dose-response curve (AUC) MKL-2 Replicate 2: 503.2
MKL-2 cells (VP-MCC); follow-up screen, MKL-2, replicate 3
  Area under the dose-response curve (AUC) MKL-2 Replicate 3: 499.4
MKL-1 cells (VP-MCC); [20]
  MKL1_AUC: 274.173
MKL-1 cells (VP-MCC); follow-up screen, MKL-1, replicate 1
  Area under the dose-response curve (AUC) MKL-1 Replicate 1: 491.0
MKL-1 cells (VP-MCC); follow-up screen, MKL-1, replicate 2
  Area under the dose-response curve (AUC) MKL-1 Replicate 2: 482.0
MKL-1 cells (VP-MCC); follow-up screen, MKL-1, replicate 3
  Area under the dose-response curve (AUC) MKL-1 Replicate 3: 520.5
[3]; MIPE library, Control AUC minus VP-MCC AUC (therapeutic window), sheet S2E
  Control-VP-MCC: 171.607
[3]; MIPE library, sheet S2E
  VP-MCC_Avg_AUC: 277.18
[4]; MIPE library, sheet S2E
  Control_Avg_AUC: 448.787
[5]; MIPE library, Control AUC minus VN-MCC AUC (therapeutic window), sheet S2E
  Control-VN-MCC: 23.0495
[5]; MIPE library, sheet S2E
  VN-MCC_Avg_AUC: 425.738
WAGA cells (VP-MCC); [20]
  WAGA_AUC: 291.204
WAGA cells (VP-MCC); follow-up screen, WAGA, replicate 1
  Area under the dose-response curve (AUC) WAGA Replicate 1: 532.2
WAGA cells (VP-MCC); follow-up screen, WAGA, replicate 2
  Area under the dose-response curve (AUC) WAGA Replicate 2: 542.6
WAGA cells (VP-MCC); follow-up screen, WAGA, replicate 3
  Area under the dose-response curve (AUC) WAGA Replicate 3: 501.4
MCC26 cells (VN-MCC); [20]
  MCC26_AUC: 459.158
MCC26 cells (VN-MCC); follow-up screen, MCC26, replicate 1
  Area under the dose-response curve (AUC) MCC26 Replicate 1: 467.8
MCC26 cells (VN-MCC); follow-up screen, MCC26, replicate 2
  Area under the dose-response curve (AUC) MCC26 Replicate 2: 425.4
MCC26 cells (VN-MCC); follow-up screen, MCC26, replicate 3
  Area under the dose-response curve (AUC) MCC26 Replicate 3: 483.6

## [H]/N=C(/NCCCCC)N/N=C/c1c[nH]c2ccc(OC)cc12 [Tegaserod]
HACAT cells; [6]
  HACAT_AUC: 397.896
UISO cells (VN-MCC); [7]
  UISO_AUC: 401.587
[1]; NPC library
  MCC_Avg_AUC: 348.911
NIH-3T3 cells; [8]
  NIH3T3_AUC: 444.55
HEK293T cells; [9]
  HEK293T_AUC: 405.853
CRL-7250 cells; [10]
  CRL7250_AUC: 432.653
MCC13 cells (VN-MCC); [11]
  MCC13_AUC: 473.827
[2]; [12]
  Control-MCC: 71.3268
MKL-2 cells (VP-MCC); [13]
  MKL2_AUC: 260.213
MKL-1 cells (VP-MCC); [14]
  MKL1_AUC: 250.061
[3]; NPC library
  VP-MCC_Avg_AUC: 263.329
[3]; [15]
  Control-VP-MCC: 156.909
[4]; NPC library
  Control_Avg_AUC: 420.238
[5]; NPC library
  VN-MCC_Avg_AUC: 434.493
[5]; [16]
  Control-VN-MCC: -14.2555
WAGA cells (VP-MCC); [17]
  WAGA_AUC: 279.713
MCC26 cells (VN-MCC); [18]
  MCC26_AUC: 428.067
